Key:
Assay type in all cases: in vitro ADME
[1] = In vitro plasma stability, rat plasma; settings: male, pH 7.4, 5 μM, 37° C., sampling 0-360 minutes, read-out: T1/2 Rat
Summary of the method: (§1)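 Pooled plasma at pH 7.4 with sodium heparin or citrate anticoagulant; compound at 5 μM, 37° C with shaking, triplicate samples at 0–360 min. Quenched in acetonitrile/1% formic acid with internal standard; LC-MS/MS peak-area ratios without standard curve; T1/2 from percent remaining.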

[2] = In vitro plasma stability, dog plasma; settings: male, pH 7.4, 5 μM, 37° C., sampling 0-360 minutes, read-out: T1/2 Dog
Summary of the method: as §1

[3] = In vitro plasma stability, human plasma; settings: male, pH 7.4, 5 μM, 37° C., sampling 0-360 minutes, read-out: T1/2 Human
Summary of the method: as §1

SMILES | half-life at 5 μM [1] [min] | half-life at 5 μM [2] [min] | half-life at 5 μM [3] [min]
CC1=NN(c2ccccc2)C(=O)C1(NO)c1ccccc1 (stereo not drawn) [Compound 24, 4-(hydroxyamino)-5-methyl-2,4-diphenyl-2,4-dihydro-3H-pyrazol-3-one] | 10 | 16 | 11
C/C(=N\OC(C)(C)C)C1(NO)C(=O)N(C)N=C1C(C)(C)C (stereo not drawn) [Compound 117, 4-[1-[(tert-Butoxy)imino]ethyl]-3-tert-butyl-4-(hydroxyamino)-1-methyl-4,5-dihydro-1H-pyrazol-5-one] | 36 | 34 | 16
CC(C)N1N=C(c2ccc(S(C)(=O)=O)cc2)C(C)(NO)C1=O (stereo not drawn) [Compound 32, 4-(hydroxyamino)-2-iso-propyl-4-methyl-5-(4-(methylsulfonyl)phenyl)-2,4-dihydro-3H-pyrazol-3-one] | 64 | 148 | 100
CSc1ccc(C2=NN(C)C(=O)C2(C)NO)cc1 (stereo not drawn) [Compound 36, 4-(hydroxyamino)-2,4-dimethyl-5-(4-(methylthio)phenyl)-2,4-dihydro-3H-pyrazol-3-one] | 300 | 133 | 152
CN1N=C(c2ccc(S(C)(=O)=O)c(N3CCOCC3)c2)C(C)(NO)C1=O (stereo not drawn) [Compound 82, 4-(Hydroxyamino)-3-[4-methanesulfonyl-3-(morpholin-4-yl)phenyl]-1,4-dimethyl-4,5-dihydro-1H-pyrazol-5-one] | 69 | 56 | 46
CN1N=C(c2ccc(F)cc2Cl)C(C)(NO)C1=O (stereo not drawn) [Compound 12, 5-(2-chloro-4-fluorophenyl)-4-(hydroxyamino)-2,4-dimethyl-2,4-dihydro-3H-pyrazol-3-one] | 20 | 28 | 18
COc1cc(C2=NN(C)C(=O)C2(C)NO)ccc1S(C)(=O)=O (stereo not drawn) [Compound 77, 4-(Hydroxyamino)-3-(4-methanesulfonyl-3-methoxyphenyl)-1,4-dimethyl-4,5-dihydro-1H-pyrazol-5-one] | 62 | 37 | 40
CC1=NN(C)C(=O)C1(NO)c1ccc(Cl)cc1 (stereo not drawn) [Compound 66, 4-(4-chlorophenyl)-4-(hydroxyamino)-1,3-dimethyl-1H-pyrazol-5(4H)-one] | 7 | 7 | 10
CN1N=C(c2ccc(F)cc2)C(C)(NO)C1=O (stereo not drawn) [Compound 5, 5-(4-fluorophenyl)-4-(hydroxyamino)-2,4-dimethyl-2,4-dihydro-3H-pyrazol-3-one] | 78 | 172 | 108
CO/N=C(\C)C1(NO)C(=O)N(C)N=C1c1ccc(F)cc1 (stereo not drawn) [Compound 64, 3-(4-fluorophenyl)-4-(hydroxyamino)-4-(1-(methoxyimino)ethyl)-1-methyl-1H-pyrazol-5(4H)-one] | 6 | 16 | 8
Cc1cc(C2=NN(C)C(=O)C2(C)NO)ccc1[S+](C)[O-] (stereo not drawn) [Compound 39, 4-(hydroxyamino)-2,4-dimethyl-5-(3-methyl-4-(methylsulfinyl)phenyl)-2,4-dihydro-3H-pyrazol-3-one] | 134 | 59 | 60
CC1=NN(C)C(=O)C1(NO)c1ccc(F)cc1 (stereo not drawn) [Compound 27, 4-(4-fluorophenyl)-4-(hydroxyamino)-2,5-dimethyl-2,4-dihydro-3H-pyrazol-3-one] | 19 | 23 | 21
CN1N=C(c2ccc(C(=O)N3CCC(F)(F)CC3)cc2)C(C)(NO)C1=O (stereo not drawn) [Compound 85, 3-[4-(4,4-Difluoropiperidine-1-carbonyl)phenyl]-4-(hydroxyamino)-1,4-dimethyl-4,5-dihydro-1H-pyrazol-5-one] | 125 | 86 | 105
CN1N=C(c2ccc(S(C)(=O)=O)c(N(C)C)c2)C(C)(NO)C1=O (stereo not drawn) [Compound 87, 3-[3-(Dimethylamino)-4-methanesulfonylphenyl]-4-(hydroxyamino)-1,4-dimethyl-4,5-dihydro-1H-pyrazol-5-one] | 63 | 42 | 47
Cc1cc(C2=NN(C)C(=O)C2(C)NO)ccc1S(C)(=O)=O (stereo not drawn) [Compound 41, 4-(hydroxyamino)-2,4-dimethyl-5-(3-methyl-4-(methylsulfonyl)phenyl)-2,4-dihydro-3H-pyrazol-3-one] | 64 | 38 | 54
CN1N=C(c2ccc(S(C)(=O)=O)c(Cl)c2)C(C)(NO)C1=O (stereo not drawn) [Compound 70, 3-(3-Chloro-4-methanesulfonylphenyl)-4-(hydroxyamino)-1,4-dimethyl-4,5-dihydro-1H-pyrazol-5-one] | 43 | 27 | 31

The next lines start with the values.

half-life at 5 μM [1] [min] | half-life at 5 μM [2] [min] | half-life at 5 μM [3] [min] | SMILES
65 | 42 | 49 | CN1CCN(c2cc(C3=NN(C)C(=O)C3(C)NO)ccc2S(C)(=O)=O)CC1 (stereo not drawn) [Compound 88, 4-(Hydroxyamino)-3-[4-methanesulfonyl-3-(4-methylpiperazin-1-yl)phenyl]-1,4-dimethyl-4,5-dihydro-1H-pyrazol-5-one]
44 | 45 | 31 | CN(C)C(=O)c1ccc(C2(NO)C(=O)N(C)N=C2C(C)(C)C)cc1 (stereo not drawn) [Compound 124, 4-[3-tert-Butyl-4-(hydroxyamino)-1-methyl-5-oxo-4,5-dihydro-1H-pyrazol-4-yl]-N,N-dimethylbenzamide]
72 | 37 | 49 | COCCN(C)S(=O)(=O)c1ccc(C2=NN(C)C(=O)C2(C)NO)cc1 (stereo not drawn) [Compound 90, 4-[4-(Hydroxyamino)-1,4-dimethyl-5-oxo-4,5-dihydro-1H-pyrazol-3-yl]-N-(2-methoxyethyl)-N-methylbenzene-1-sulfonamide]
20 | 26 | 17 | CCO/N=C(\C)C1(NO)C(=O)NN=C1C(C)(C)C (stereo not drawn) [Compound 134, 3-tert-Butyl-4-[1-(ethoxyimino)ethyl]-4-(hydroxyamino)-4,5-dihydro-1H-pyrazol-5-one]
270 | 166 | 169 | CN1N=C(c2ccc(C(N)=O)cc2)C(C)(NO)C1=O (stereo not drawn) [Compound 92, 4-[4-(Hydroxyamino)-1,4-dimethyl-5-oxo-4,5-dihydro-1H-pyrazol-3-yl]benzamide]
< 1 | < 1 | < 1 | CO/N=C(\C)C1(NO)C(=O)N(c2ccccc2)N=C1[S+]([O-])c1ccccc1 (stereo not drawn) [Compound 130, 3-(Benzenesulfinyl)-4-(hydroxyamino)4[1-(methoxyimino)ethyl]-1-phenyl-4,5-dihydro1H-pyrazol-5-one]
18 | 30 | 18 | CCOC1=NN(C)C(=O)C1(NO)/C(C)=N/OC (stereo not drawn) [Compound 126, 3-Ethoxy-4-(hydroxyamino)-4-[1-(methoxyimino)ethyl]-1-methyl-4,5-dihydro-1H-pyrazol-5-one]
24 | 7 | 15 | CO/N=C(\C)C1(NO)C(=O)NN=C1C(C)(C)C (stereo not drawn) [Compound 131, 3-tert-Butyl-4-(hydroxyamino)-4-[1-(methoxyimino)ethyl]-4,5-dihydro-1H-pyrazol-5-one]
116 | 126 | 110 | CC1(NO)C(=O)NN=C1c1ccc(S(C)(=O)=O)cc1 (stereo not drawn) [Compound 133, 4-(Hydroxyamino)-3-(4-methanesulfonylphenyl)-4-methyl-4,5-dihydro-1H-pyrazol-5-one]
59 | 33 | 28 | CN1N=C(c2ccc(S(C)(=O)=O)c(S(C)(=O)=O)c2)C(C)(NO)C1=O (stereo not drawn) [Compound 104, 3-(3,4-Dimethanesulfonylphenyl)-4-(hydroxyamino)-1,4-dimethyl-4,5-dihydro-1H-pyrazol-5-one]
> 480 | > 480 | > 480 | CCOC1=NN(c2ccccc2)C(=O)C1(C)NO (stereo not drawn) [Compound 127, 3-Ethoxy-4-(hydroxyamino)-4-methyl-1-phenyl-4,5-dihydro-1H-pyrazol-5-one]
15 | 13 | 10 | CCOC1=NN(C)C(=O)C1(NO)/C(C)=N/OCc1ccccc1 (stereo not drawn) [Compound 125, 4-[1-[(Benzyloxy)imino]ethyl]-3-ethoxy-4-(hydroxyamino)-1-methyl-4,5-dihydro-1H-pyrazol-5-one]
62 | 12 | 11 | CCOC1=NN(c2ccccc2)C(=O)C1(NO)/C(C)=N/OC (stereo not drawn) [Compound 110, 3-Ethoxy-4-(hydroxyamino)-4-[1-(methoxyimino)ethyl]-1-phenyl-4,5-dihydro-1H-pyrazol-5-one]
8 | 4 | 2 | CO/N=C(\C)C1(NO)C(=O)N(C)N=C1c1ccc(S(=O)(=O)N(C)C)cc1 (stereo not drawn) [Compound 121, 4-[4-(Hydroxyamino)-4-[1-(methoxyimino)ethyl]-1-methyl-5-oxo-4,5-dihydro-1H-pyrazol-3-yl]-N,N-dimethylbenzene-1-sulfonamide]

— patent US9682938B2, “Pyrazolone derivatives as nitroxyl donors” (Cardioxyl Pharmaceuticals, Inc., priority 2014, dated 2017)
